The text below walks through data of patent US8129381B2, “Caspase inhibitors and uses thereof” (Vertex Pharmaceuticals Incorporated, priority 2002, dated 2012).

The target in assay [1] is T1, recombinant, purified human Caspase-1 (Homo sapiens, UniProt P29466).
T1 sequence (P29466 120-297 limits assumed): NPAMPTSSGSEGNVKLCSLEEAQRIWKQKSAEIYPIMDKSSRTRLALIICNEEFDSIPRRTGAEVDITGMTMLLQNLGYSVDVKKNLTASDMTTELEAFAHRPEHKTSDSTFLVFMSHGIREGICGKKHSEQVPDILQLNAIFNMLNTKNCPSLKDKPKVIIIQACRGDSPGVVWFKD
T1 sequence (P29466 317-404 limits assumed): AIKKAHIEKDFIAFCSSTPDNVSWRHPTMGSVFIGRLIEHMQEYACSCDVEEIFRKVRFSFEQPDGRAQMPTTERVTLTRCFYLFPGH
Put plainly: Enzyme assay, caspase inhibition (fluorogenic substrate cleavage). Particulars: second order rate constant of enzyme inactivation; substrate Acetyl-Tyr-Val-Ala-Asp-amino-4-methylcoumarin. In kind it is biochemical. From the text:
(§1) The assays for caspase inhibition are based on the cleavage of a fluorogenic substrate by recombinant, purified human Caspases −1, −3, −7 or −8. The assays are run in essentially the same way as those reported by Garcia-Calvo et al., J. Biol. Chem. 273, 32608-32613 (1998), using a substrate specific for each enzyme. The substrate for Caspase-1 is Acetyl-Tyr-Val-Ala-Asp-amino-4-methylcoumarin and the substrate for Caspases −3, −7 and −8 is Acetyl-Asp-Glu-Val-Asp-amino-4-methylcoumarin both as disclosed in Garcia-Calvo et al., J. Biol. Chem. 273, 32608-32613 (1998).
(§2) The observed rate of enzyme inactivation at a particular inhibitor concentration, kobs, is computed by direct fits of the data to the equation derived by Thornberry et al., Biochemistry, 33, […] (1994) using a nonlinear least-squares analysis computer program (PRISM 2.0; GraphPad software). To obtain the second order rate constant, kinact, kobs values are plotted against their respective inhibitor concentrations and kinact values are subsequently calculated by computerized linear regression.
(§3) Compounds with kinact(M^−1s^−1)>500000 are listed as “A”. Compounds with kinact(M^−1s^−1) between 100000 and 500000 are listed as “B”. Compounds with kinact(M^−1s^−1)<100000 are listed as “C”.

Assay [2] has as its target T2, recombinant, purified human Caspase-3 (Homo sapiens, UniProt P42574).
T2 sequence (P42574 29-175 limits assumed): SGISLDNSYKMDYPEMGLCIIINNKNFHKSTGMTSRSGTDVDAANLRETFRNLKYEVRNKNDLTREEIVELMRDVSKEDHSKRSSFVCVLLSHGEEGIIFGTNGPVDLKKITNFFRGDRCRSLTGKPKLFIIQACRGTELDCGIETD
T2 sequence (P42574 176-277 limits assumed): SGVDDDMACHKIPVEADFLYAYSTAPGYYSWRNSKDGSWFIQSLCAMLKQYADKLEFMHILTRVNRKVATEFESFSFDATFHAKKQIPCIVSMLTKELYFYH
The assay is described as above. In kind it is biochemical. Conditions: second order rate constant of enzyme inactivation; substrate Acetyl-Asp-Glu-Val-Asp-amino-4-methylcoumarin.
Source text: as §1, §2, §3

Assay [3] has as its target recombinant, purified human Caspase-8 (Homo sapiens, UniProt Q14790). The assay is described as above. In kind it is biochemical. Conditions: second order rate constant of enzyme inactivation; substrate Acetyl-Asp-Glu-Val-Asp-amino-4-methylcoumarin.
Source text: as §1, §2, §3

The test system of assay [4] is IL-1β secretion from human whole blood. Briefly: Inhibition of IL-1β secretion from whole blood. In kind it is cell-based. Particulars: human whole blood diluted 1:2 in PBS, LPS 5 ng/ml, 18 hours, ELISA. How it is done: Human blood is freshly drawn from healthy donors and diluted 1:2 in PBS. To 500 μl of diluted blood […] of prediluted test compound in RPMI medium and […] LPS (5 ng/ml final concentration on the plate) are added (LPS, Serotype 0111:B4, Sigma L3012). After stimulation for 18 hours supernatants are collected and assayed for IL-1β levels using the appropriate ELISA kit (R&D systems).
Compounds with an IC50>10 μM are listed as “A”. Compounds with an IC50 between 1 μM and 10 uM are listed as “B”. Compounds with an IC50<1 μM are listed as “C”.
For orientation: In an ELISA, binding on a coated surface is turned into a signal by an enzyme label.

The next assay relates to rat cortical neurons. Put plainly: Hypoxia-induced apoptosis of rat cortical neurons. In kind it is cell-based, Wistar rat. Conditions: Cortical neurone, oxygen-depleted serum-free medium, Cell Death Detection ELISA (DNA fragmentation). On the procedure:
Cortical neurons are dissociated from Wistar rat embryos (E17) by a modification of the procedure of Rogers et al., Brain Res. Bulletin, 44:131 (1998). Briefly, cerebral cortices are isolated aseptically from 15-20 Wistar rat embryos. A cell suspension is prepared by mincing the cerebral cortices and digesting them with papain. Cells are washed with ovomucoid enzyme inhibitor and DNaseI and plated onto Poly-D lysine coated plates in high glucose DMEM containing 10% heat-inactivated fetal calf serum, L-glutamine, penicillin and streptomycin. The yield of neurons is […] per embryo and they are 80-90% viable as assessed by Trypan blue exclusion.
The neurons are cultured in complete medium at 37° C. in a normal atmosphere for 48 hours prior to the hypoxia experiments. For hypoxia, the normal cell medium is replaced by oxygen-depleted serum-free medium. Cells are incubated in an atmosphere of 95% N2/5% CO2 for various lengths of time. Compounds are dissolved in DMSO at 100 mM then diluted in medium and added to the culture from time=0. The level of apoptosis is measured using a Cell Death Detection ELISA kit (Roche) which detects DNA fragmentation. Plates are read at 405 nm. Controls included cells cultured in aerobic conditions in serum-containing medium (+serum) and cells cultured in aerobic conditions in serum-deprived medium (−serum).
Compounds with an IC50>0.5 μM are listed as “A”. Compounds with an IC50 between 0.1 μM and 0.5 uM are listed as “B”. Compounds with an IC50<0.1 μM are listed as “C”.

Chain of recombinant, purified human Caspase-8 (Q14790 217-374 limits assumed): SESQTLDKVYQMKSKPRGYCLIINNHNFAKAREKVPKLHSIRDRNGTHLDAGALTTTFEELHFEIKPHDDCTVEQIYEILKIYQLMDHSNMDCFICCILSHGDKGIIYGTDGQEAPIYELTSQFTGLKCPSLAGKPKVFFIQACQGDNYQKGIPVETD
Chain of recombinant, purified human Caspase-8 (Q14790 385-479 limits assumed): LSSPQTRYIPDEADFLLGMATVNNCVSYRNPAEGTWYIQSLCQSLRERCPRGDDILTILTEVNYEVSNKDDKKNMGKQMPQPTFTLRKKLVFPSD

What is called IC50 is the concentration that gives 50% inhibition. Low readings indicate inhibition by little substance, high ones a need for much substance. `CC[C@@H](C(=O)N[C@@H](CC(=O)O)C(=O)COc1c(F)c(F)cc(F)c1F)n1ccc2ccccc2c1=O` [Compound 9, (S,S)-3-[2-(1-oxo-1H-isoquinolin-2-yl)-butyrylamino]-4-oxo-5-(2,3,5,6-tetrafluoro-phenoxy)-pentanoic acid]: in assay [1], the “kinact Caspase-1” value was “B (Compounds with kinact(M^−1s^−1) between 100000 and 500000 are listed as “B”)”. Further, the “kinact Caspase-3” value in assay [2] was “B (Compounds with kinact(M^−1s^−1) between 100000 and 500000 are listed as “B”)”. The “kinact Caspase-8” value in assay [3] was “C (Compounds with kinact(M^−1s^−1)<100000 are listed as “C”)”. Moreover, the half-maximal inhibitory concentration (IC50) in assay [4] is more than 10000 nM; in the assay with rat cortical neurons it was 100 to 500 nM.
Regarding `CC[C@@H](C(=O)N[C@@H](CC(=O)O)C(=O)COc1c(F)c(F)cc(F)c1F)n1ccc2ccc(Cl)cc2c1=O` [Compound 10, (S,S)-3-[2-(7-chloro-1-oxo-1H-isoquinolin-2-yl)-butyrylamino]-4-oxo-5-(2,3,5,6-tetrafluoro-phenoxy)-pentanoic acid], in assay [1], the “kinact Caspase-1” value was “A (Compounds with kinact(M^−1s^−1)>500000 are listed as “A”)”. Moreover, the “kinact Caspase-3” value in assay [2] is “A (Compounds with kinact(M^−1s^−1)>500000 are listed as “A”)”. In addition, the “kinact Caspase-8” value in assay [3] is given as “C (Compounds with kinact(M^−1s^−1)<100000 are listed as “C”)”. In addition, the results for the half-maximal inhibitory concentration (IC50) (in assay [4]; in the assay with rat cortical neurons) were 1000 to 10000 nM and less than 100 nM, respectively.
Take `CC[C@@H](C(=O)N[C@@H](CC(=O)O)C(=O)COc1c(F)c(F)cc(F)c1F)n1ccc2cc(Cl)c(Cl)cc2c1=O` [Compound 11, (S,S)-3-[2-(6,7-dichloro-1-oxo-1H-isoquinolin-2-yl)-butyrylamino]-4-oxo-5-(2,3,5,6-tetrafluoro-phenoxy)-pentanoic acid]: the “kinact Caspase-1” value in assay [1] is listed as “A (Compounds with kinact(M^−1s^−1)>500000 are listed as “A”)”. For the same compound, the “kinact Caspase-3” value in assay [2] was “A (Compounds with kinact(M^−1s^−1)>500000 are listed as “A”)”. Also, the “kinact Caspase-8” value in assay [3] is recorded as “C (Compounds with kinact(M^−1s^−1)<100000 are listed as “C”)”. Moreover, the 50% inhibitory concentration (IC50) in assay [4] was more than 10000 nM; in the assay on rat cortical neurons, 100 to 500 nM.
Consider `CC[C@@H](C(=O)NC(CC(=O)O)C(=O)CF)n1cnc2ccc(Oc3ccccc3Cl)cc2c1=O` (stereo partly drawn) [Compound 12, 3-[(2S)-2-[6-(2-Chloro-phenoxy)-4-oxo-4H-quinazolin-3-yl)-butyrylamino]-5-fluoro-4-oxo-pentanoic acid], for which the “kinact Caspase-1” value in assay [1] is listed as “A (Compounds with kinact(M^−1s^−1)>500000 are listed as “A”)”. Besides, the “kinact Caspase-3” value in assay [2] is reported as “A (Compounds with kinact(M^−1s^−1)>500000 are listed as “A”)”. Moreover, in assay [3], the “kinact Caspase-8” value is “A (Compounds with kinact(M^−1s^−1)>500000 are listed as “A”)”. The half-inhibitory concentration (IC50) is 1000 to 10000 nM in assay [4] and more than 500 nM in the assay on rat cortical neurons.
On to `CC[C@@H](C(=O)NC(CC(=O)O)C(=O)CF)n1cnc2ccc(Oc3cccc(Cl)c3)cc2c1=O` (stereo partly drawn) [Compound 13, 3-[(2S)-2-[6-(3-Chlorophenoxy)-4-oxo-4H-quinazolin-3-yl)-butyrylamino]-5-fluoro-4-oxo-pentanoic acid], for which the “kinact Caspase-1” value in assay [1] was “B (Compounds with kinact(M^−1s^−1) between 100000 and 500000 are listed as “B”)”. Further, the “kinact Caspase-3” value in assay [2] is “B (Compounds with kinact(M^−1s^−1) between 100000 and 500000 are listed as “B”)”. In assay [3], the “kinact Caspase-8” value is reported as “A (Compounds with kinact(M^−1s^−1)>500000 are listed as “A”)”. Besides, the half-maximal inhibitory concentration (IC50) is 1000 to 10000 nM in assay [4] and 100 to 500 nM in the assay with rat cortical neurons.
For the compound `CC[C@@H](C(=O)NC(CC(=O)O)C(=O)CF)n1cnc2ccc(Oc3cccc(F)c3)cc2c1=O` (stereo partly drawn) [Compound 14, 5-Fluoro-3-{(2S)-2[6-(3-fluorophenoxy)-4-oxo-4H-quinazolin-3-yl]-butyrylamino}-4-oxo-pentanoic acid], the “kinact Caspase-1” value in assay [1] is on record as “A (Compounds with kinact(M^−1s^−1)>500000 are listed as “A”)”. Besides, in assay [2], the “kinact Caspase-3” value is listed as “A (Compounds with kinact(M^−1s^−1)>500000 are listed as “A”)”. The “kinact Caspase-8” value in assay [3] is “B (Compounds with kinact(M^−1s^−1) between 100000 and 500000 are listed as “B”)”. The half-maximal inhibitory concentration (IC50) in assay [4] is less than 1000 nM; in the assay with rat cortical neurons, more than 500 nM.
For `CC[C@@H](C(=O)NC(CC(=O)O)C(=O)CF)n1cnc2ccc(Oc3ccc(Cl)cc3Cl)cc2c1=O` (stereo partly drawn) [Compound 15, 3-{(2S)-2-[6-(2,4-Dichloro-phenoxy)-4-oxo-4H-quinazolin-3-yl]-butyrylamino}-5-fluoro-4-oxo-pentanoic acid], the “kinact Caspase-1” value in assay [1] is “B (Compounds with kinact(M^−1s^−1) between 100000 and 500000 are listed as “B”)”. Moreover, the “kinact Caspase-3” value in assay [2] was “B (Compounds with kinact(M^−1s^−1) between 100000 and 500000 are listed as “B”)”. In assay [3], the “kinact Caspase-8” value is on record as “A (Compounds with kinact(M^−1s^−1)>500000 are listed as “A”)”. Also, the results for the IC50 (in assay [4]; in the assay on rat cortical neurons) were 1000 to 10000 nM and 100 to 500 nM, respectively.
In the case of `CC[C@@H](C(=O)NC(CC(=O)O)C(=O)CF)n1cnc2ccc(Sc3ccccc3)cc2c1=O` (stereo partly drawn) [Compound 16, 5-Fluoro-4-oxo-3-[(2S)-2-(4-oxo-6-phenylsulfanyl-4H-quinazolin-3-yl)-butyrylamino]-pentanoic acid], the “kinact Caspase-1” value in assay [1] is “A (Compounds with kinact(M^−1s^−1)>500000 are listed as “A”)”. Moreover, in assay [2], the “kinact Caspase-3” value is on record as “A (Compounds with kinact(M^−1s^−1)>500000 are listed as “A”)”. Further, the “kinact Caspase-8” value in assay [3] is recorded as “A (Compounds with kinact(M^−1s^−1)>500000 are listed as “A”)”. In addition, the IC50 in assay [4] lay within 1000 to 10000 nM; in the assay on rat cortical neurons, 100 to 500 nM.
As for `CC[C@@H](C(=O)NC(CC(=O)O)C(=O)CF)n1cnc2ccc(Sc3cccc(F)c3)cc2c1=O` (stereo partly drawn) [Compound 17, 5-Fluoro-3{(2S)-2[6-(3-fluoro-phenylsulfanyl)-4-oxo-4H-quinazolin-3-yl]-butyrylamino}-4-oxo-pentanoic acid], the “kinact Caspase-1” value in assay [1] is reported as “A (Compounds with kinact(M^−1s^−1)>500000 are listed as “A”)”. Besides, in assay [2], the “kinact Caspase-3” value is “A (Compounds with kinact(M^−1s^−1)>500000 are listed as “A”)”. The “kinact Caspase-8” value in assay [3] is recorded as “A (Compounds with kinact(M^−1s^−1)>500000 are listed as “A”)”. In addition, the half-maximal inhibitory concentration (IC50) in assay [4] lay in the range of 1000 to 10000 nM; in the assay with rat cortical neurons it was 100 to 500 nM.
Regarding `CC[C@@H](C(=O)N[C@@H](CC(=O)O)C(=O)COc1c(F)c(F)cc(F)c1F)n1ccc2ccc(C(F)(F)F)cc2c1=O` [Compound 19, (S,S)-3-[2-(7-trifluoromethyl-1-oxo-1H-isoquinolin-2-yl)-butyrylamino]-4-oxo-5-(2,3,5,6-tetrafluoro-phenoxy)-pentanoic acid], the “kinact Caspase-1” value in assay [1] is recorded as “A (Compounds with kinact(M^−1s^−1)>500000 are listed as “A”)”. The “kinact Caspase-3” value in assay [2] was “A (Compounds with kinact(M^−1s^−1)>500000 are listed as “A”)”. The “kinact Caspase-8” value in assay [3] is “C (Compounds with kinact(M^−1s^−1)<100000 are listed as “C”)”. In addition, the IC50 in assay [4] is 1000 to 10000 nM; with rat cortical neurons, less than 100 nM.
